Experimental data from BindingDB's records for doi:10.1016/j.ejmech.2010.08.026 (Instituto De Parasitología Y Biomedicina …, 2010).
pIC50: −log10 of the molar value.

Molecular target: T1, Purine nucleoside phosphorylase (Plasmodium falciparum, UniProt Q8T9Z7)
T1 sequence (Q8T9Z7 whole entry): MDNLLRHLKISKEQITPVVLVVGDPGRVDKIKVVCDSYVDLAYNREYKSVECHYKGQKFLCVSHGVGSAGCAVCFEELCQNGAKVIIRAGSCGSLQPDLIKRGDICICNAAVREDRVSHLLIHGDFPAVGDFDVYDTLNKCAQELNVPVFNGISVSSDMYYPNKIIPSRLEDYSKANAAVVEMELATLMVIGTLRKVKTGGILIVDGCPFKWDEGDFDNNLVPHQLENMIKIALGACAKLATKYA
Experiment: Inhibition of Plasmodium falciparum PNP expressed in Escherichia coli BL21(DE3) cells by spectrophotometry

In the case of `O=c1[nH]c(O)c(Cc2ccccc2)c(=O)[nH]1` [5-benzylpyrimidine-2,4,6(1H,3H,5H)-trione], the pIC50 was < 3.00.
